Laboratory results: US20060009448A1, “Metabolites of 4-(3,4-dichloro-phenyl)-2-[2-(4-methyl-piperazin-1-yl)-benzylidene]thiomorpholin-3-one” (Pfizer Inc., priority 2004, published 2006)

Experiment: Percentages of plasma metabolites in human after oral administration of [14C]-Formula I (HPLC radioprofiling of pooled plasma)
Format: in vivo
Method: Six healthy male human subjects were administered a single 10 mg (free base) oral dose of 4-(3,4-dichloro-phenyl)-2-[2-(4-methyl-piperazin-1-yl)-benzylidene]-thiomorpholin-3-one containing 100 μCi of [^14C]-4-(3,4-dichloro-phenyl)-2-[2-(4-methyl-piperazin-1-yl)-benzylidene]-thiomorpholin-3-one (Lot# 49,800-103-1, specific activity 15.66 mCi/mmol, radiochemical purity >99%). [drawing 9]
a). Blood sufficient to provide approximately 10 mL plasma for 4-(3,4-dichloro-phenyl)-2-[2-(4-methyl-piperazin-1-yl)-benzylidene]-thiomorpholin-3-one metabolite identification was collected in heparinized tubes at the following approximate times: 2, 8, 24, 48, 96, and 192 hours after drug administration. Samples were centrifuged at approximately 4° C. and the plasma was stored in appropriately labeled, screw-capped opaque polypropylene tubes at −20° C. until analysis.
Plasma samples were pooled by human subject separately according to the method published by Raid, et al. (Raid, et al: Pharm. Res. (1991), 8(4), 541-543). Aliquots (1 mL) from each pool were extracted with 5 mL of acetonitrile. The mixtures were vortex-mixed for 3 minutes, sonicated for 30 minutes and then centrifuged for 7 minutes at 20° C. Aliquotes of the supernatant (2×500 μL) were counted to determine recovery. Approximately 95.1% of the radioactivity was recovered in the supernatants. The supernatants were combined according to subject number to two equal sets and dried in the Turbovap at room temperature. One set of the dried residue (six subjects) was reconstituted in 150 μL of 10 mM ammonium acetate (pH 4.0)/methanol/dimethyl sulfoxide (1.5:1.5:1) and aliquots of 100 μL were injected onto HPLC-Arc system for profiling. The other set of dried residues were combined and reconstituted in 300 μL of 10 mM ammonium acetate (pH 4.0)/methanol/dimethyl sulfoxide (1.5:1.5:1) and 90 μL was injected onto HPLC-MS/MS system for metabolite identification.

SMILES: CN1CCn2c(c(C3SCCN(c4ccc(Cl)c(Cl)c4)C3=O)c3ccccc32)C1 (stereo not shown) [Metabolite M10A]
- % of Total Radioactivity in Plasma, Subject#1 (human Subject#1, single 10 mg oral dose of [14C]-parent compound): 60.6%
- % of Total Radioactivity in Plasma, Subject#2 (human Subject#2, single 10 mg oral dose of [14C]-parent compound): 57.6%
- % of Total Radioactivity in Plasma, Subject#3 (human Subject#3, single 10 mg oral dose of [14C]-parent compound): 62.8%
- % of Total Radioactivity in Plasma, Subject#4 (human Subject#4, single 10 mg oral dose of [14C]-parent compound): 72.2%
- % of Total Radioactivity in Plasma, Subject#5 (human Subject#5, single 10 mg oral dose of [14C]-parent compound): 69.6%
- % of Total Radioactivity in Plasma, Subject#6 (human Subject#6, single 10 mg oral dose of [14C]-parent compound): 68.3%
- % of Total Radioactivity in Plasma, Mean (mean of six human subjects, single 10 mg oral dose of [14C]-parent compound): 65.2%
